Data from ChEMBL document CHEMBL1201862, “PubChem BioAssay data set” (2004).
The source made the active and inactive calls.

Columns and labels:
[1] = target: T1, Polyadenylate-binding protein 1 (Homo sapiens, UniProt P11940); assay: PABP1 MLLE–PAM2 binding inhibitor potency, dose response, biochemical, fluorescence polarization, FITC-PAM2 peptide (AID 602259); type: functional; settings: read-out: IC50_Mean
[2] = target: T1, Polyadenylate-binding protein 1; assay: PABP1 MLLE–PAM2 interaction inhibitors, dose response, miRNA deadenylation inhibitor project, biochemical, fluorescence polarization, Cy5-PAM2 peptide, secondary (AID 602260); type: functional; settings: read-out: IC50_Mean
[3] = target: T2, Fatty acid synthase (Homo sapiens, UniProt P49327); assay: FAS thioesterase domain inhibitors, dose response, biochemical, endpoint fluorescence intensity, uHTS hits (AID 624327); type: functional;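 further: fluorescence from hydrolysis of an O-methyl fluorescein acyl ester substrate by the enzyme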
[4] = target: T2, Fatty acid synthase; assay: FAS thioesterase domain inhibitors, dose response, biochemical, kinetic fluorescence intensity (AID 624326); type: functional;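 further: rate of fluorescence rise from hydrolysis of a fluorogenic O-methyl fluorescein ester substrate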
[5] = LGR2 antagonists, dose response, cell-based, HEK293, CRE-luciferase reporter, cherry pick, set 2 (AID 743343); type: functional;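 further: transfected cells were stimulated with diluted bursicon conditioned medium after compound addition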
[6] = HepG2 cell cytotoxicity, dose response, cytotoxicity control, plate reader, cherry-pick, antagonist series (AID 743416); type: functional, cell-based
[7] = inhibitors of firefly luciferase expression or activity, dose response, H4 neuroglioma cells, luminescence (AID 1990); type: functional, cell-based
[8] = MC4R antagonists, dose response, counter-screen for LGR2 antagonist project, cell-based, plate reader, cherry pick (AID 743444); type: functional;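 further: transfected HEK 293 cells stimulated with alpha-MSH peptide; potency of inhibitors of the alpha-MSH evoked signal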
[9] = Luminescence Cell-Based Dose Response HTS to Identify Inhibitors of 5'UTR Stem-Loop Driven Prion Protein mRNA Translation in H4 Neuroglioblastoma Cells. [Related pubchem assays: 1827 (Project Summary), 1813 (Primary HTS)]; type: functional
[10] = inhibitors of SNCA 5'UTR-driven reporter translation, confirmation, H4 neuroglioma cells, luminescence (AID 1988); type: functional, cell-based
[11] = HEK293 cell cytotoxicity, dose response, cytotoxicity control, plate reader, cherry-picked samples (AID 743446); type: functional, cell-based
[12] = A549 cell cytotoxicity, dose response, cytotoxicity control, plate reader, cherry-pick, antagonist series (AID 743412); type: functional, cell-based
[13] = cytotoxicity in HPDE-C7 cells, cell-based, fluorescence, HTS (AID 430); type: functional; settings: Homo sapiens
[14] = cytotoxicity in KRAS-transformed pancreatic duct cells, primary screen, cell-based, fluorescence, HTS (AID 431); type: functional; settings: Homo sapiens;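 further: cell line used: HPDE-C7K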
[15] = Luminescence Cell-Based Dose Confirmation HTS to Identify Inhibitors of Platelet Dense Granule Release. [Related pubchem assays: 1663 (Primary HTS), 1678 (Summary of Project)]; type: functional
[16] = target: Luciferin 4-monooxygenase (Photinus pyralis, UniProt P08659); assay: firefly luciferase enzyme inhibitors, dose response, biochemical, luminescence (AID 1891)
[17] = target: T3, Histone-lysine N-methyltransferase NSD2 (Homo sapiens, UniProt O96028); type: biochemical
T3 sequence (O96028 whole entry): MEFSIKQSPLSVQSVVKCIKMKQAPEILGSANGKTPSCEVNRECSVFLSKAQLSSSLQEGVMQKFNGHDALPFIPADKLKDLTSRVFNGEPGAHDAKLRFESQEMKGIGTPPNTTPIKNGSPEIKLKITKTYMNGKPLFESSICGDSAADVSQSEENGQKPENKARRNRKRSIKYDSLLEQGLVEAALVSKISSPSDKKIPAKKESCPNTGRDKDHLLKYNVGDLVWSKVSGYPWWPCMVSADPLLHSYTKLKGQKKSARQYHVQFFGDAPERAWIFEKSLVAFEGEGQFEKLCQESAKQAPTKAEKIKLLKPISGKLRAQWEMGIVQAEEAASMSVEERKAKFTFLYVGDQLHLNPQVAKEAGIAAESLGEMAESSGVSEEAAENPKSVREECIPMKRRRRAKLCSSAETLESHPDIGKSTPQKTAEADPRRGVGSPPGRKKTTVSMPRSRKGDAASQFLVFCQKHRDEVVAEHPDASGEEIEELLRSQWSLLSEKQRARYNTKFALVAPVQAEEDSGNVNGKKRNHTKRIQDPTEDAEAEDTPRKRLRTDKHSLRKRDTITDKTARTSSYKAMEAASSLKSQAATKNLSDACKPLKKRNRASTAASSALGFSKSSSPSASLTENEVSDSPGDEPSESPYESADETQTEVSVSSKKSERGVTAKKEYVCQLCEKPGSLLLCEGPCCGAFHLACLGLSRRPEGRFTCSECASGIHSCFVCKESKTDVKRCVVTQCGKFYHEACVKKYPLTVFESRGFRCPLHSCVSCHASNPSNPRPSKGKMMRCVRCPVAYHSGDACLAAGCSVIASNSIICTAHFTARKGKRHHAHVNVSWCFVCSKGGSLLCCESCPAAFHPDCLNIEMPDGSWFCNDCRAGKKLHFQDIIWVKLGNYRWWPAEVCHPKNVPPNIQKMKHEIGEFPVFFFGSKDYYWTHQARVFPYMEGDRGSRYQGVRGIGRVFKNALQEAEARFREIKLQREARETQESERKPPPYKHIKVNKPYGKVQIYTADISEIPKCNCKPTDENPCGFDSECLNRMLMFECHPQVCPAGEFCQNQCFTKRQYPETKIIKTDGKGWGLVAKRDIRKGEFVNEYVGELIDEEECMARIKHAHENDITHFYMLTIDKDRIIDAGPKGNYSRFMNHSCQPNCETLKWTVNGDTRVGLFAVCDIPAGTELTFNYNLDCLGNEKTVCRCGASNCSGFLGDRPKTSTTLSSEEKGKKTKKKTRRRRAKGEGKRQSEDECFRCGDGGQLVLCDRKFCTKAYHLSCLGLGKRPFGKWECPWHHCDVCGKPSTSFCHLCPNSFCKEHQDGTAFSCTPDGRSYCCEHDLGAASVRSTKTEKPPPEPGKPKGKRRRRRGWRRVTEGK

[18] = inhibitors of intracellular T. cruzi replication, confirmation, NIH3T3 host cells, beta-gal luminescence (AID 2044); type: functional, cell-based;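 further: intracellular parasites grown in NIH/3T3 mouse fibroblasts as host cells; luminescent beta-galactosidase reporter signal from transgenic T. cruzi replicating inside host cells; inhibitors lower the luminescence signal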
[19] = cytotoxicity toward NIH3T3 fibroblasts, dose response, counter-screen, cell-based, ATP luminescence, mouse fibroblasts (AID 2010); type: functional;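 further: cells exposed to compound for about 90 hours before reading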
[20] = target: T4, Heat shock factor protein 1 (Mus musculus, UniProt P38532); assay: HSF1 potentiators in luciferase reporter cells, confirmation, cell-based, NIH3T3, luminescence, dose retest (AID 435004); type: functional;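 further: stress induced by proteasome inhibitor MG132 added 30 min after compound; luciferase reporter driven by HSF1 response element in NIH3T3 cells; actives raise luminescence as potentiators of the MG132 stress response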
T4 sequence (P38532 whole entry): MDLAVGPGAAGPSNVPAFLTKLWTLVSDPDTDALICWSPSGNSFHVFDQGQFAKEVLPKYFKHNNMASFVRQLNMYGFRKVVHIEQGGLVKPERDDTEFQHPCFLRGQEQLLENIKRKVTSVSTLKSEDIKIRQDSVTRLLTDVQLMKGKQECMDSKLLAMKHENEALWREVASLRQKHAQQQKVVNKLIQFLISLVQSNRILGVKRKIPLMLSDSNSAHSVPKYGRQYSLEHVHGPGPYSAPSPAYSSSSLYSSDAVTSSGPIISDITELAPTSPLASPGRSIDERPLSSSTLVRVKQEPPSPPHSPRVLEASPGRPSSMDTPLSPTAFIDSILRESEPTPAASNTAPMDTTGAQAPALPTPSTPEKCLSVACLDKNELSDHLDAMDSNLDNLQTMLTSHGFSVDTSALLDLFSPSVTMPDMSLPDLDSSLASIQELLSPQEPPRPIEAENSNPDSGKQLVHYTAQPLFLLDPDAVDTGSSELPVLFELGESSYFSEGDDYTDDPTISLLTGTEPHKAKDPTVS

[21] = HEp-2 cell cytotoxicity, dose response, cytotoxicity control for RSV inhibitor project, HTS (AID 2410); type: functional; settings: human respiratory syncytial virus
[22] = target: Mitogen-activated protein kinase 10 (Homo sapiens, UniProt P53779); assay: Dose response biochemical screening assay for inhibitors of c-Jun N-Terminal Kinase 3 (JNK3). [Related pubchem assays: 746 ]
[23] = target: T5, Microphthalmia-associated transcription factor (Homo sapiens, UniProt O75030); assay: TRPM1 promoter luciferase signal decrease, dose response, MITF inhibitor project, cell-based, SK-MEL-5, cherry-picked, set 3 (AID 493073); type: functional
T5 sequence (O75030 whole entry): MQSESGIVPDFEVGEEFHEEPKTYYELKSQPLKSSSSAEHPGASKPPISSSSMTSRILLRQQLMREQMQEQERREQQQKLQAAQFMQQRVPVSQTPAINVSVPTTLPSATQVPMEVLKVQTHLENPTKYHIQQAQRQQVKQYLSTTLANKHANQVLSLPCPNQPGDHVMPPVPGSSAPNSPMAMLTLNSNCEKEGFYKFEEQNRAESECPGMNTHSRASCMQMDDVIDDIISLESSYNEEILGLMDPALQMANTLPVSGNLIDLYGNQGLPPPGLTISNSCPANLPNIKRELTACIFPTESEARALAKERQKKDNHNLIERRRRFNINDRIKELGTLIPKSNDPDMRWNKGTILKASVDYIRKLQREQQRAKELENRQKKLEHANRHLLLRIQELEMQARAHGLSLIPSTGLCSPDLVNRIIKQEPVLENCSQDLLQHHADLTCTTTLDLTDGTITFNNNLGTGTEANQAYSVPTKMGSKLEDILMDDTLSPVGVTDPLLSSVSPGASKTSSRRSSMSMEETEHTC

[24] = Luminescence Cell-Based Dose Confirmation HTS to Identify Activators of 5'UTR Stem-Loop Driven Alpha-Synuclein mRNA Translation in H4 Neuroglioblastoma Cells. [Related pubchem assays: 1829 (Project Summary), 1814 (Primary HTS)]; type: functional
[25] = tested on: H4; assay: Luminescence Cell-Based Dose Response HTS to Identify Activators of 5'UTR Stem-Loop Driven Prion Protein mRNA Translation in H4 Neuroglioblastoma Cells. [Related pubchem assays: 1829 (Project Summary), 1814 (Primary HTS)]; type: functional; settings: Homo sapiens
[26] = Luminescence Cell-Based Dose Response HTS to Identify Activators of Luciferase Translation or Activity in H4 […] Cells. [Related pubchem assays: 1829 (Project Summary), 1814 (Primary HTS)]; type: functional

T2 sequence (P49327 whole entry, the tested form may be a part): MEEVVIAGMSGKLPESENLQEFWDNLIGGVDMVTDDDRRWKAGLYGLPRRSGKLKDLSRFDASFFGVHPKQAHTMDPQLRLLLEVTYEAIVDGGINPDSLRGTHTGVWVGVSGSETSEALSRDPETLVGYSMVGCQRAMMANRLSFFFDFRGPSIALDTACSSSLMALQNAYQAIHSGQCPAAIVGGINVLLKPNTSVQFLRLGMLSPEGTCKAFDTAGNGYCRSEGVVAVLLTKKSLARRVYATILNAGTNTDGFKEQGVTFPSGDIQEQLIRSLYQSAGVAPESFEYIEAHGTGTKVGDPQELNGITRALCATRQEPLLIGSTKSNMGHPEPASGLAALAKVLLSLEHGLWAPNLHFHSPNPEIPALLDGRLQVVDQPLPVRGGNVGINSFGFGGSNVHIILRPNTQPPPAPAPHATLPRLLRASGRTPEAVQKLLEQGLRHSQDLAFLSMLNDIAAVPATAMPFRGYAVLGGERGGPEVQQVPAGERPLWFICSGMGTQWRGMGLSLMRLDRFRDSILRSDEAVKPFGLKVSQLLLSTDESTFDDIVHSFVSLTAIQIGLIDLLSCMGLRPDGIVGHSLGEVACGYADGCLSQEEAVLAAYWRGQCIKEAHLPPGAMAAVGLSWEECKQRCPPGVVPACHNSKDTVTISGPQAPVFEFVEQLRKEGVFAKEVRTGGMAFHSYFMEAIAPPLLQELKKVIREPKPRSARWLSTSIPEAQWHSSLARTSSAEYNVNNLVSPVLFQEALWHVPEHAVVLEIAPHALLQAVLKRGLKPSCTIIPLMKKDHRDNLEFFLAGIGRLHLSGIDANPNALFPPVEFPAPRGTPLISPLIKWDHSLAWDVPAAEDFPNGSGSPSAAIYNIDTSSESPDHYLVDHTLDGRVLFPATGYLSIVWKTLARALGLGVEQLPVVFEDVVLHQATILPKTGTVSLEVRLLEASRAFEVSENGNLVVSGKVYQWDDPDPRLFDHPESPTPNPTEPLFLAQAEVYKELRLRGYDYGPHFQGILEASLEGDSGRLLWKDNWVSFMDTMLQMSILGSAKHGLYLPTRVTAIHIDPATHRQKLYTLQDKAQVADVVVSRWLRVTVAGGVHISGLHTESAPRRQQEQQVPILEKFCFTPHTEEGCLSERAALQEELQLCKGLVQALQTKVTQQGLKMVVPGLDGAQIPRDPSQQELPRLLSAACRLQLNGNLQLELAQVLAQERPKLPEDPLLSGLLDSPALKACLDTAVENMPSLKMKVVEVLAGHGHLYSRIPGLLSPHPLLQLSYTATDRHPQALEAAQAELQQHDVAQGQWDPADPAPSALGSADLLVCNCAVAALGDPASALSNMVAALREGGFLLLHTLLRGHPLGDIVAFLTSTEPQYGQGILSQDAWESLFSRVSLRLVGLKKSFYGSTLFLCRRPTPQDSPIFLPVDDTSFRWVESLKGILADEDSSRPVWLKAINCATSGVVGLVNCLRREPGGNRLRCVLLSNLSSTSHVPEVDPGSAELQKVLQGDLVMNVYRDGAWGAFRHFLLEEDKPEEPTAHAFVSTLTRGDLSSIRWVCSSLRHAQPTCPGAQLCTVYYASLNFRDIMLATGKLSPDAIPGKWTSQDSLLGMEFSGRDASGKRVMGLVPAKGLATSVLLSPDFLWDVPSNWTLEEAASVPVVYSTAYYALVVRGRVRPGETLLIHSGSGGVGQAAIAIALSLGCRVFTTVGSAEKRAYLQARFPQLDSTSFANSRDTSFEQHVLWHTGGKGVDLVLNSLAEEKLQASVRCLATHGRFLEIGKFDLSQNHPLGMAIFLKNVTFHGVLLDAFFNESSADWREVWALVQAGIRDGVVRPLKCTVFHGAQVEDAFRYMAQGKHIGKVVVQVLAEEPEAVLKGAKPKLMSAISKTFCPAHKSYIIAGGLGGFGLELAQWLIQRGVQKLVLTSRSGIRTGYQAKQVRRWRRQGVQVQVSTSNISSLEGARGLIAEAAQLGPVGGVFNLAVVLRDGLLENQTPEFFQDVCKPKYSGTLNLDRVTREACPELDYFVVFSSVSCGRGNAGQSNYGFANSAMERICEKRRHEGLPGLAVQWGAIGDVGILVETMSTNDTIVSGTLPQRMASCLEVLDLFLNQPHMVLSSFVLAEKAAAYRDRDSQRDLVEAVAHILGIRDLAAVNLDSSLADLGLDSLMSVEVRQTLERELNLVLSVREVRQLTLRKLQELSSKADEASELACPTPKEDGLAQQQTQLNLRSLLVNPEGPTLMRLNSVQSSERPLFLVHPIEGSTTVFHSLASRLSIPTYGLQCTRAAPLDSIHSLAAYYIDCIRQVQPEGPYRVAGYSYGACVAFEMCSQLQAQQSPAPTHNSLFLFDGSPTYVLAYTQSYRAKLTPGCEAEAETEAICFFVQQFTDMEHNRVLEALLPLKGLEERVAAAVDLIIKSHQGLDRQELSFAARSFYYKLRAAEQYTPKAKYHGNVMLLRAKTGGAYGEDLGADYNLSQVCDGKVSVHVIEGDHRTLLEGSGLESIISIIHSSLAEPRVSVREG
T1 sequence (P11940 whole entry): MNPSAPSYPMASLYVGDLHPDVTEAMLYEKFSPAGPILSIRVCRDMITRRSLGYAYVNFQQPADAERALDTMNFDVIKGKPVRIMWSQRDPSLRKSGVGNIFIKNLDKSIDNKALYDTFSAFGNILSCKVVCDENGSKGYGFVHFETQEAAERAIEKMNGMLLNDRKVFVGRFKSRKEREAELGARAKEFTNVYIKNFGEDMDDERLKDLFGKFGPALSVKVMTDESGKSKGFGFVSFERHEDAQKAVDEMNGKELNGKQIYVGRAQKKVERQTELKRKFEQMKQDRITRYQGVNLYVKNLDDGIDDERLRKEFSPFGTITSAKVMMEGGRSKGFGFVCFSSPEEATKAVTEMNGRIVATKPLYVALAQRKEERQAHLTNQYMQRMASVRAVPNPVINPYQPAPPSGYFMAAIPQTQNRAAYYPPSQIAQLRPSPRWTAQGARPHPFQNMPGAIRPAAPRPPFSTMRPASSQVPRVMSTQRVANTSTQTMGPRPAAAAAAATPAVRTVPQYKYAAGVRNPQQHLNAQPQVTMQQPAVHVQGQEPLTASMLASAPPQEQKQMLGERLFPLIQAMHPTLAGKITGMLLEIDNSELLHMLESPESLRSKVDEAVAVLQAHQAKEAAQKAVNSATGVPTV
Sequence of Mitogen-activated protein kinase 10 (P53779 whole entry): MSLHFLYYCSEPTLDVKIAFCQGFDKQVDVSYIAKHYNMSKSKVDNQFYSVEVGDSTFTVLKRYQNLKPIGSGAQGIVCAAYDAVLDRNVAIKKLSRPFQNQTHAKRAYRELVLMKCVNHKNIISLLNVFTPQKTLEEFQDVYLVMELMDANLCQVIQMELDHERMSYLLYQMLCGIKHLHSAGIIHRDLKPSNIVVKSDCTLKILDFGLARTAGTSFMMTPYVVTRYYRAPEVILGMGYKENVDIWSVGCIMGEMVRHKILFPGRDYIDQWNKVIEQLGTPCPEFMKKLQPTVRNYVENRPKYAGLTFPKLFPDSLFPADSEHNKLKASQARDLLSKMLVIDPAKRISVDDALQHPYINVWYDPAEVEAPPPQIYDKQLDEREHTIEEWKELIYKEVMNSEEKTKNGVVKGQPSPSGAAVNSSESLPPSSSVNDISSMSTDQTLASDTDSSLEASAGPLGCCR
Sequence of Luciferin 4-monooxygenase (P08659 whole entry): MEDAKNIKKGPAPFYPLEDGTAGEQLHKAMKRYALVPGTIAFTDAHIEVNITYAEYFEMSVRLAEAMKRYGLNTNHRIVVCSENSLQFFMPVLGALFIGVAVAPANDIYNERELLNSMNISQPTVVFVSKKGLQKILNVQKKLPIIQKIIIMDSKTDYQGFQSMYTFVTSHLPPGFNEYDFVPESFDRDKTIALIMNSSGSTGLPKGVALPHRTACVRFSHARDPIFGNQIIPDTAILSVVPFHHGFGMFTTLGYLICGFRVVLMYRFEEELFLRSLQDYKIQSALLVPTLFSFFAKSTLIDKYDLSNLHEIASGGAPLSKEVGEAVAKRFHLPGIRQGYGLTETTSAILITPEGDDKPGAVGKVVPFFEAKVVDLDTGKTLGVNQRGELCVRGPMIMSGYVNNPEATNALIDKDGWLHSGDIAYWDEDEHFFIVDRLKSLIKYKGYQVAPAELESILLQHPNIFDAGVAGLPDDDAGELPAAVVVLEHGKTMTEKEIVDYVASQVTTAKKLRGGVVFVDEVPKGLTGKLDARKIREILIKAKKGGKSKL

## CC(C)(CCC(=S)N1CCOCC1)C1CCCCC1
[1]
  IC50: > 66 µM (inactive)
[2]
  IC50: > 66 µM (inactive)

## COc1cc(C(=O)COC(=O)c2cc([N+](=O)[O-])ccc2N2CCOCC2)ccc1OC(F)F
[3]
  IC50: 10.3 µM (active)
[4]
  IC50: 10.1 µM (active)

## COc1ccc(C(=O)Nc2ccc3ccccc3c2)cc1
[5]
  AC50: 5.78 µM (active)
[6]
  AC50: 45.6 µM (active)
[7]
  EC50: 9.12 µM (inconclusive)
[8]
  AC50: 8.43 µM (active)
[9]
  EC50: 10.4 µM (inconclusive)
[10]
  EC50: 6.82 µM (active)

## O=C(Nc1nnc(C2CC2)s1)c1ccccn1
[11]
  AC50: 19 µM (active)
[12]
  AC50: 7.92 µM (active)
[5]
  AC50: 18.3 µM (active)
[6]
  AC50: 8.23 µM (active)
[8]
  AC50: 17.1 µM (active)

## COc1ccc(N2CCN(C(=O)CSc3ccc([N+](=O)[O-])cc3)CC2)cc1
[3]
  IC50: 21.1 µM (inactive)
[4]
  IC50: 12.9 µM (active)

## CN1CCN(CC(=O)Nc2sc3c(c2C#N)CCC(C(C)(C)C)C3)CC1 (stereo not drawn)
[13]
  EC50: > 20 µM (not active)
[14]
  EC50: > 20 µM (not active)

## CCCN1C(=O)SC(CC(=O)Nc2ccc(C)cc2)C1=O (stereo not drawn)
[1]
  IC50: > 66 µM (inactive)
[2]
  IC50: > 66 µM (inactive)

## CC(=O)c1c2c3c(c(Br)ccc3n(C)c1=O)C(=O)c1ccccc1-2
[1]
  IC50: 37.5 µM (inactive)
[2]
  IC50: 45.8 µM (inactive)
[15]
  EC50: > 112 µM (not active)
[16]
  EC50: > 112 µM (not active)

## CCN(CC)CCCNc1cc(C)c(C#N)c2nc3ccccc3n12
[17]
  AC50: > 20 µM (inactive)

## O=C(Nc1cccc(Cl)c1)c1cc([N+](=O)[O-])ccc1N1CCN(CCO)CC1
[3]
  IC50: 6.61 µM (active)
[4]
  IC50: 2.72 µM (active)

## CCNCCC(CCC(C)C)c1ccc2c(c1)OCO2 (stereo not drawn)
[17]
  AC50: > 20 µM (inactive)

## c1ccc(-c2nc(NCc3cccnc3)c3oc4ccccc4c3n2)cc1
[18]
  EC50: 2.22 µM (active)
[13]
  EC50: 14.2 µM (active)
[14]
  EC50: 15.8 µM (active)
[19]
  EC50: > 60 µM (not active)
[20]
  EC50: > 260 µM (inactive)
[21]
  CC50: 28.9 µM (active)

## CN(Cc1ccc(C(C)(C)C)cc1)C(=O)Cc1ccc(S(=O)(=O)N2CCOCC2)s1
[3]
  IC50: 0.424 µM (active)
[4]
  IC50: 0.291 µM (active)

## CC(=O)c1ccc(OCCCC(=O)NC2=NCCS2)cc1
[1]
  IC50: > 66 µM (inactive)
[2]
  IC50: > 66 µM (inactive)

## COc1ccc(/C=C(\NC(=O)c2ccc([N+](=O)[O-])cc2)C(=O)NCCCN2CCOCC2)cc1
[3]
  IC50: 4.51 µM (active)
[4]
  IC50: 2.95 µM (active)

## Cc1nc(NCc2ccco2)c(C#N)c2c1COC(C)(C)C2
[22]
  IC50: 37.5 µM (not active)

## Cc1ccc(-n2[nH]c(=O)c(-c3ccccn3)c2C)cc1
[12]
  AC50: > 52 µM (inactive)
[5]
  AC50: 1.61 µM (active)
[8]
  AC50: 2.08 µM (active)
[9]
  EC50: 0.571 µM (active)
[10]
  EC50: 2 µM (active)
[23]
  AC50: 3.23 µM (active)

## CCOC(=O)c1cnc2ccc(Cl)cc2c1N1CCN(C)CC1
[22]
  IC50: 25.9 µM (not active)

## CC1=C(C(=O)O)N2C(=O)C(NC(=O)c3ccc(F)cc3)C2SC1 (stereo not drawn)
[1]
  IC50: > 66 µM (inactive)
[2]
  IC50: > 66 µM (inactive)

## N#CC1=C(N)NC(SCc2ccc(F)cc2)=C(C#N)C12CCCCC2
[24]
  EC50: > 120 µM (not active)
[13]
  EC50: 10.4 µM (active)
[14]
  EC50: 9.03 µM (active)
[25]
  EC50: > 120 µM (not active)
[26]
  EC50: > 120 µM (not active)

## COc1cccc(-n2c(=S)sc3c(=O)n(-c4ccccc4OC)c(=S)[nH]c32)c1
[1]
  IC50: > 66 µM (inactive)
[2]
  IC50: > 66 µM (inactive)
